# Data: patent US11951109B2, “EZH2 inhibitors for treating lymphoma” (Epizyme, Inc., priority 2015, dated 2024)
# Experiments:
# SU-DHL-6 = experiment: Combination of EPZ-6438 and other therapeutic agents (4+3 model), SU-DHL-6; conditions: for combination effect with EPZ-6438, SU-DHL-6: Mutant EZH2 GCB
# WSU-DLCL2 = experiment: Combination of EPZ-6438 and other therapeutic agents (4+3 model), WSU-DLCL2; conditions: for combination effect with EPZ-6438, WSU-DLCL2: Mutant EZH2 GCB, EPZ-6438 4 days then co-treatment 3 days (4+3 model)
# SU-DHL-10 = experiment: Combination of EPZ-6438 and other therapeutic agents (4+3 model), SU-DHL-10; conditions: for combination effect with EPZ-6438, SU-DHL-10: Mutant EZH2 GCB
# RC-K8 = experiment: Combination of EPZ-6438 and other therapeutic agents (4+3 model), RC-K8; conditions: WT EXH2 ABC
# KARPAS-422 = experiment: Combination of EPZ-6438 and other therapeutic agents (4+3 model), KARPAS-422; conditions: Mutant EZH2 GCB
# OCI-LY19 = experiment: Combination of EPZ-6438 and other therapeutic agents (4+3 model), OCI-LY19; conditions: WT EZH2 GCB; 4+3 model
# OCI-LY3 = experiment: Combination of EPZ-6438 and other therapeutic agents (4+3 model), OCI-LY3; conditions: WT EXH2 ABC
# TMD8 = experiment: Combination of EPZ-6438 and other therapeutic agents (4+3 model), TMD8; conditions: WT EXH2 ABC
# SUDHL5 = experiment: Combination of EPZ-6438 and other therapeutic agents (4+3 model), SUDHL5; conditions: WT EZH2 GCB
# Toledo = conditions: Table 3; 4+3 model
# DOHH2 = experiment: Combination of EPZ-6438 and other therapeutic agents (4+3 model), DOHH2; assay type: cell-based
# Farage = experiment: Combination of EPZ-6438 and other therapeutic agents (4+3 model), Farage; conditions: WT EZH2 GCB
# HT = experiment: Combination of EPZ-6438 and other therapeutic agents (4+3 model), HT; conditions: WT EZH2 GCB
# SUDHL2 = experiment: Combination of EPZ-6438 and other therapeutic agents (4+3 model), SUDHL2; conditions: WT EXH2 ABC
# OCI-LY7 = experiment: Combination of EPZ-6438 and other therapeutic agents (4+3 model), OCI-LY7; conditions: WT EZH2 GCB
SMILES,"combination effect with EPZ-6438, SU-DHL-6 (SU-DHL-6)","combination effect with EPZ-6438, WSU-DLCL2 (WSU-DLCL2)","combination effect with EPZ-6438, SU-DHL-10 (SU-DHL-10)","combination effect with EPZ-6438, RC-K8 (RC-K8)","combination effect with EPZ-6438, KARPAS-422 (KARPAS-422)","combination effect with EPZ-6438, OCI-LY19 (OCI-LY19)","combination effect with EPZ-6438, OCI-LY3 (OCI-LY3)","combination effect with EPZ-6438, TMD8 (TMD8)","combination effect with EPZ-6438, SUDHL5 (SUDHL5)","combination effect with EPZ-6438, SU-DHL-6 (mutant EZH2 GC) (SU-DHL-6; Table 3)","combination effect with EPZ-6438, WSU-DLCL2 (mutant EZH2 GC) (WSU-DLCL2; Table 3, 4+3 model)","combination effect with EPZ-6438, SU-DHL-10 (mutant EZH2 GC) (SU-DHL-10; Table 3)","combination effect with EPZ-6438, Toledo (WT EZH2 ABC) (Toledo)","combination effect with EPZ-6438, DOHH2 (WT EZH2 GC) (DOHH2; Table 3)","combination effect with EPZ-6438, Farage (Farage)","combination effect with EPZ-6438, HT (HT)","combination effect with EPZ-6438, SUDHL2 (SUDHL2)","combination effect with EPZ-6438, OCI-LY7 (OCI-LY7)","combination effect with EPZ-6438, DOHH2 (DOHH2; WT EZH2 GCB)"
CC1(C)CCC(CN2CCN(c3ccc(C(=O)NS(=O)(=O)c4ccc(NCC5CCOCC5)c([N+](=O)[O-])c4)c(Oc4cnc5[nH]ccc5c4)c3)CC2)=C(c2ccc(Cl)cc2)C1 [ABT-199],ADD.,S,ADD.,S,S,S,S,,,,,,,,,,,,
Cc1nc(Nc2ncc(C(=O)Nc3c(C)cccc3Cl)s2)cc(N2CCN(CCO)CC2)n1 [Dasatinib],,S,S,,,,,S,S,,,,,,,,,,
COc1cccc2c1C(=O)c1c(O)c3c(c(O)c1C2=O)C[C@@](O)(C(=O)CO)C[C@@H]3O[C@H]1C[C@H](N)[C@H](O)[C@H](C)O1 [Doxorubicin],,,,,,,,,,Additive,Synergy,Additive,No effect,No effect,,,,,
CO[C@H]1C[C@@H]2CC[C@@H](C)[C@@](O)(O2)C(=O)C(=O)N2CCCC[C@H]2C(=O)O[C@H]([C@H](C)C[C@@H]2CC[C@@H](OCCO)[C@H](OC)C2)CC(=O)[C@H](C)/C=C(\C)[C@@H](O)[C@@H](OC)C(=O)[C@H](C)C[C@H](C)/C=C/C=C/C=C/1C [Everolimus],S,S,S,S,ADD.,,S,S,S,,,,,,S,S,S,S,
Cc1cnc(Nc2ccc(OCCN3CCCC3)cc2)nc1Nc1cccc(S(=O)(=O)NC(C)(C)C)c1 [Fedratinib],,,,,,,,,,,,,,,,,ADD.,,
CCOC(=O)CCNc1cc(N2CCc3ccccc3CC2)nc(-c2ccccn2)n1 [GSK J4],ADD.,ADD.,,ADD.,,ADD.,,,,,,,,,,,ADD.,,ADD.
C=CC(=O)N1CCC[C@@H](n2nc(-c3ccc(Oc4ccccc4)cc3)c3c(N)ncnc32)C1 [Ibrutinib],S,S,S,ADD.,S,,ADD.,S,S,,,,,,S,S,ADD.,S,
CC[C@H](Nc1ncnc2[nH]cnc12)c1nc2cccc(F)c2c(=O)n1-c1ccccc1 [Idelalisib],S,S,S,S,S,,S,S,S,,,,,,S,S,,S,
